Assay results taken from patent US11312950B2, “3D synthetic tissue hydrogels” (University of Massachusetts, priority 2017, dated 2022).

What was measured:
hMSCs [1] = assay: Competitive binding assay: adhesion of hMSCs pre-treated with soluble peptides to a surface with the bone marrow peptide cocktail; format: cell-based, human; details: 30 minutes pretreatment; glass surface with bone marrow integrin-binding peptide cocktail; three donor hMSCs and hTERT MSCs; 2 hours
Protocol: Cells were seeded at 4000 cells per cm^2 in their normal growth medium after 30 minutes of pretreatment with individual peptides or the complete bone marrow cocktail. Bone marrow was dosed at a molar amount of […] of medium and the molar amount dosed for each peptide was as follows: GRGDSPCG (SEQ ID NO:8)at 600 pmol/mL, CGPHSRNGGGGGGRGDS (SEQ ID NO:14), and […] (SEQ ID NO:18) at 220 pmol/mL, CGP(GPP)5GFOGER(GPP)5 (SEQ ID NO:15), CGGSVVYGLR (SEQ ID NO:13), and GPRGGC (SEQ ID NO:2)at 160 pmol/mL, CSVTCG (SEQ ID NO:4) and […] (SEQ ID NO:5) at 100 pmol/mL, GCGDGEA (SEQ ID NO:1), CSRARKQAASIKVAVADR (SEQ ID NO:3), GCKQLREQ (SEQ ID NO:6), and CGGAEIDGIEL (SEQ ID NO:16) at 60 pmol/mL, and GCDPGYIGSR (SEQ ID NO:7) at 40 pmol/mL. Cells were imaged cells beginning 10 minutes after seeding in an environment controlled Zeiss Axio Observer Z1 microscope (Carl Zeiss) using an AxioCam MRm camera and an EC Plan-Neofluar 20× 0.4 NA air objective. Images were taken using Zen (Carl Zeiss) at five-minute intervals for 2 hours and cell areas were traced in ImageJ (National Institutes of Health).

hMSCs [2] = assay: Outgrowth of hMSCs on beads in hydrogels made with a single MMP degradable crosslinker; format: cell-based, human; details: versus control, non-degradable crosslinker
Protocol: (§1) Cytodex1 microcarrier beads (Sigma) were swollen in sterile IX PBS (1 g beads/50 mL PBS) and autoclaved for 30 minute at 121° C. Flasks were coated with poly (2-hydroxyethy methacrylate) suspended in ethanol at 20 mg/mL and allowed to evaporate in a biosafety cabinet for 1 hour to make they non-adherent. hMSCs were seeded at 10-50 cells/bead in non-adherent flasks at a 0.1 mL of beads/mL of media. The flask was shaken every 1 hour for 4 hours to ensure coating unto beads. Cells were allowed to grow on beads for 72 hours before seeding into hydrogels. Breast cancer cells were suspended in 4° C., poly(N-isopropylacryamide)-poly(ethylene glycol) (pNIPAAM-PEG, Cosmo Bio) reconstituted in cell culture medium at a density of 167,000 cells/mL of MDA-MB-231s. Gelation occurred after 5 min at 37° C., and gels were swollen in cell culture medium and grown into spheroids for 14 days. pNIPAAm gels were dissolved in cold serum-free DMEM (1% pen/strep) and spheroids transferred to conical tubes placed in ice so that spheroids would settle to the bottom. The supernatant was removed and the spheroids were re-suspended in PEG-maleimide solution. A ratio of 9 3D hydrogels were made for every 150 μL of pNIPAAM-PEG. Hydrogels were prepared with 4-arm PEG-maleimide at a 20 wt % cross-linked at a 1:1 molar ratio with 50% 1.5 K linear PEG-dithiol and 50% of each individual MMP degradable peptide sequence (FIGS. 13A-13C). Gels were imaged at days 1 and 3 and all image analysis was performed in ImageJ (National Institutes of Health).

MDA-MB-231 cells = assay: MDA-MB-231 spheroid growth in hydrogels with one MMP degradable crosslinker; format: cell-based, human; details: spheroid size ratio
Protocol: as §1, with “Gels were imaged at days 1 and 3 and all image analysis was performed in ImageJ (National Institutes of Health).” left out

myofibroblasts = details: cited from earlier work
chick arotic cells = details: cited from earlier work

CGGAEIDGIEL [tenascin C]
cell adhesion (cell area) after pre-treatment with soluble peptide (hMSCs [1]): not significantly bound

CGP(GPP)5GFOGER(GPP)5 (CGPGPPGPPGPPGPPGPPGFGERGPPGPPGPPGPPGPP) [collagen I]
cell adhesion (cell area) after pre-treatment with soluble peptide (hMSCs [1]): not significantly bound

GCRDGPLGLWARDRCG [MMP-13 crosslinker, di-functional MMP degradable crosslinker peptide designed for MMP 13 (Collagenase-3)]
hMSC cell branching into hydrogel (maximum branch length per bead) (hMSCs [2]): No significant hMSC cell branching
degradation of crosslinked gel by MDA-MB-231 spheroids (MDA-MB-231 cells): degradation in the MMP-13 crosslinked gel was observed

GCRDRPFSMIMGDRCG [MMP-3 crosslinker, di-functional MMP degradable crosslinker peptide designed for MMP 3 (Stromelysin-1)]
hMSC cell branching into hydrogel (maximum branch length per bead) (hMSCs [2]): No significant hMSC cell branching
degradation of crosslinked gel by MDA-MB-231 spheroids (MDA-MB-231 cells): again not with the MMP 2 and 3 peptides
ability of MMP peptide to degrade (myofibroblasts): ability for these MMP peptides to degrade has been shown

GCRDSGESPAYYTADRCG [MMP-2 crosslinker, di-functional MMP degradable crosslinker peptide designed for MMP 2 (Gelatinase A)]
hMSC cell branching into hydrogel (maximum branch length per bead) (hMSCs [2]): No significant hMSC cell branching
degradation of crosslinked gel by MDA-MB-231 spheroids (MDA-MB-231 cells): again not with the MMP 2 and 3 peptides
ability of MMP peptide to degrade (chick arotic cells): ability for these MMP peptides to degrade has been shown
